# Biological target: T1, hQ23 (HEK-293 cell line stably transfected with one of the members of the KCNQ family) (Homo sapiens, UniProt O43525+O43526)
# T1 construct: expressed in transfected cells; host or cells: HEK-293, stably transfected
# Experiment: Thallium flux assay for KCNQ channel blockers (FLIPR, BTC dye)
# Format: cell-based
# Settings: Table 2; thallium flux, HEK-293
# Outline: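 HEK-293 cells stably expressing a KCNQ member, loaded with BTC-AM (2 μM) in chloride-free buffer, pH 7.3; compounds added at 1% DMSO, then Tl2SO4 stimulus on FLIPR (488/540 nm, 60 s). Minimal active concentration set at ≥4 SD above negative control; IC50 from 10-point 1:3 series, single-site logistic fit versus the positive-control blocker.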
# T1 sequence (O43526 whole entry): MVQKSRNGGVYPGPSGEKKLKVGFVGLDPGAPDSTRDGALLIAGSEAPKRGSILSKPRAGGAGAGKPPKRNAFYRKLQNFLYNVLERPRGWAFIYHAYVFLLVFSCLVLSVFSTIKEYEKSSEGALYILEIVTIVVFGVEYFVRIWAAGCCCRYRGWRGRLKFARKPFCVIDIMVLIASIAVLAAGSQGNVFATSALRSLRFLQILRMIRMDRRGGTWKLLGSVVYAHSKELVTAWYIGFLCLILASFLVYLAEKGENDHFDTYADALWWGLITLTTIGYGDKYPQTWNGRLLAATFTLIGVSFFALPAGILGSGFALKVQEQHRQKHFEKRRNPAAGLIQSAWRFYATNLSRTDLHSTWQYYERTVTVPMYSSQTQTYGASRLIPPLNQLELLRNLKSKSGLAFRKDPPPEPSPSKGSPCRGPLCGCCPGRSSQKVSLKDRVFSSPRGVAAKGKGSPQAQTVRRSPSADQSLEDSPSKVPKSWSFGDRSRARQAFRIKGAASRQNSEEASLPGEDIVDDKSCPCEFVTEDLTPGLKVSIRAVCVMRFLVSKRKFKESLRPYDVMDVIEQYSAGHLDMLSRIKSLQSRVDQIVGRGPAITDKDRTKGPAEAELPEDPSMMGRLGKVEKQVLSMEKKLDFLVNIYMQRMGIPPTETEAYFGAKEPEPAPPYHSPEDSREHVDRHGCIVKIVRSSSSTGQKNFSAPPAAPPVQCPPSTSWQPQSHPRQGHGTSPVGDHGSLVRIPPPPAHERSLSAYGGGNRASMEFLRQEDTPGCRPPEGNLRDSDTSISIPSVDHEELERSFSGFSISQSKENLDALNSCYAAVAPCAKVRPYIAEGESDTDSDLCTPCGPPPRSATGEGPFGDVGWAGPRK
# T1 sequence (O43525 whole entry): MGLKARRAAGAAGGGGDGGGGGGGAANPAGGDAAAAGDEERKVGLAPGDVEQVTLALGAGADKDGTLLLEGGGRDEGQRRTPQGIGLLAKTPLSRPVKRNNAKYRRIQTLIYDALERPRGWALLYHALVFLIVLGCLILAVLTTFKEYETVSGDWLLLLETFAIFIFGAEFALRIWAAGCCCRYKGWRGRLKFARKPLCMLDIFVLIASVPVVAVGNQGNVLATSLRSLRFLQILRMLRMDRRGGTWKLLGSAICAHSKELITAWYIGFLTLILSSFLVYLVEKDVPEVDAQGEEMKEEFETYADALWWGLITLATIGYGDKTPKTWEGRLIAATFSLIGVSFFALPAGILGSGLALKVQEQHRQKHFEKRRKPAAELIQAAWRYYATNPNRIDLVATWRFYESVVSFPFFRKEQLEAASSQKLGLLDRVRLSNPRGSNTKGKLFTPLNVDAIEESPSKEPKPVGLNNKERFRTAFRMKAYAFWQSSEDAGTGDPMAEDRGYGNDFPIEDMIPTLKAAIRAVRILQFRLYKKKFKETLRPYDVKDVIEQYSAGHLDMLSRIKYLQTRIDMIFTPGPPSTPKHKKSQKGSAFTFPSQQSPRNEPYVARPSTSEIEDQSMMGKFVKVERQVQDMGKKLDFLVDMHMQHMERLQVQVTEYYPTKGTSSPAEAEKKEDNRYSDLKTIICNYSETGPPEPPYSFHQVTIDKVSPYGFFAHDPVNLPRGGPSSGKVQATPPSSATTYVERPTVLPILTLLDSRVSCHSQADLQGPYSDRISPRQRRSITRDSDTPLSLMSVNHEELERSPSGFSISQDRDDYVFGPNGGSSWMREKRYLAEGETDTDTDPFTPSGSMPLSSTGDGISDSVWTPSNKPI
row,EC50,SMILES
1,212 nM,"CC1CCN(c2ncc(C(=O)N[C@H](C)c3cccc4ccccc34)c(C3(c4ccccc4)CC3)n2)CC1 [Example 35, 5-pyrimidinecarboxamide, 2-(4-methyl-1-piperidinyl)-N-[(1R)-1-(1-naphthalenyl)ethyl]-4-(1-phenylcyclopropyl)-]"
2,107 nM,"CC1CCCN(c2ncc(C(=O)N[C@H](C)c3cccc4ccccc34)c(C3(c4ccccc4)CC3)n2)C1 (stereo partly drawn) [Example 34, 5-pyrimidinecarboxamide, 2-(3-methyl-1-piperidinyl)-N-[(1R)-1-(1-naphthalenyl)ethyl]-4-(1-phenylcyclopropyl)-]"
3,381 nM,"CC1CCN(c2ncc(C(=O)NCc3cccc4ccccc34)c(C3(c4ccccc4)CC3)n2)CC1 [Example 38, 5-pyrimidinecarboxamide, 2-(4-methyl-1-piperidinyl)-N-(1-naphthalenylmethyl)-4-(1-phenylcyclopropyl)-]"
4,293 nM,"CC1CCC(Nc2ncc(C(=O)N[C@H](C)c3cccc4ccccc34)c(C3(c4ccccc4)CC3)n2)CC1 (stereo partly drawn) [Example 33, 5-pyrimidinecarboxamide, 2-[(4-methylcyclohexyl)amino]-N-[(1R)-1-(1-naphthalenyl)ethyl]-4-(1-phenylcyclopropyl)-]"
5,607 nM,"CCN(Cc1ccccc1)C(=O)c1cnc(NC2CCC(C)CC2)nc1C1(c2ccccc2)CC1 (stereo not shown) [Example 29, 5-pyrimidinecarboxamide, N-ethyl-2-[(4-methylcyclohexyl)amino]-4-(1-phenylcyclopropyl)-N-(phenylmethyl)-]"

# Second part, the molecule before the results:
row,SMILES,EC50
1,"CC1CCN(c2ncc(C(=O)NCc3ccc(Cl)cc3Cl)c(C3(c4ccccc4)CC3)n2)CC1 [Example 41, 5-pyrimidinecarboxamide, N-[(2,4-dichlorophenyl)methyl]-2-(4-methyl-1-piperidinyl)-4-(1-phenylcyclopropyl)-]",220 nM
2,"CC1CCCN(c2ncc(C(=O)N3CCc4ccccc4C3)c(C3(c4ccccc4)CC3)n2)C1 (stereo not shown) [Example 25, isoquinoline, 1,2,3,4-tetrahydro-2-[[2-(3-methyl-1-piperidinyl)-4-(1-phenylcyclopropyl)-5-pyrimidinyl]carbonyl]-]",945 nM

# Same assay, conditions: Table 3; thallium flux, HEK-293
row,SMILES,EC50
1,"CN(C)CCNc1ncc(C(=O)N(C)CCc2ccccc2)c(C2(c3ccc(Cl)cc3)CCC2)n1 [Example 55, 5-pyrimidinecarboxamide, 4-[1-(4-chlorophenyl)cyclobutyl]-2-[[2-(dimethylamino)ethyl]amino]-N-methyl-N-(2-phenylethyl)-]",321 nM

# Same assay, conditions: hQ23 cells, thallium flux
row,EC50,SMILES
1,40 nM,"CC(NC(=O)c1cnc(N2CCCC2)nc1C1(c2ccc(Cl)cc2)CCCC1)c1cccc2ccccc12 (stereo not shown) [Example 158, 5-pyrimidinecarboxamide, 4-[1-(4-chlorophenyl)cyclopentyl]-N-[1-(1-naphthalenyl)ethyl]-2-(1-pyrrolidinyl)-]"
2,195 nM,"CC(NC(=O)c1cnc(NC2CC2)nc1C1(c2ccc(Cl)cc2)CCCC1)c1cccc2ccccc12 (stereo not shown) [Example 157, 5-pyrimidinecarboxamide, 4-[1-(4-chlorophenyl)cyclopentyl]-2-(cyclopropylamino)-N-[1-(1-naphthalenyl)ethyl]-]"
3,64 nM,"CC1CCC(Nc2ncc(C(=O)NC(C)c3cccc4ccccc34)c(C3(c4ccccc4)CCCC3)n2)CC1 (stereo not shown) [Example 95, 5-pyrimidinecarboxamide, 2-[(4-methylcyclohexyl)amino]-N-[1-(1-naphthalenyl)ethyl]-4-(1-phenylcyclopentyl)-]"
4,85 nM,"CC1CCC(Nc2ncc(C(=O)NCc3ccc(F)cc3F)c(C3(c4ccccc4)CCCC3)n2)CC1 (stereo not shown) [Example 116, 5-pyrimidinecarboxamide, N-[(2,4-difluorophenyl)methyl]-2-[(4-methylcyclohexyl)amino]-4-(1-phenylcyclopentyl)-]"
5,16 nM,"CC1CCC(Nc2ncc(C(=O)NCc3cccc4ccccc34)c(C3(c4ccc(Cl)cc4)CCCC3)n2)CC1 (stereo not shown) [Example 166, 5-pyrimidinecarboxamide, 4-[1-(4-chlorophenyl)cyclopentyl]-2-[(4-methylcyclohexyl)amino]-N-(1-naphthalenylmethyl)-]"

# Further lines, the molecule ahead of its results:
row,SMILES,EC50
1,"CCC(C)Nc1ncc(C(=O)NCc2cc(F)cc(C(F)(F)F)c2)c(C2(c3ccccc3)CCCC2)n1 (stereo not shown) [Example 128, 5-pyrimidinecarboxamide, N-[[3-fluoro-5-(trifluoromethyl)phenyl]methyl]-2-[(1-methylpropyl)amino]-4-(1-phenylcyclopentyl)-]",10 nM
2,"CCN(Cc1ccccc1)C(=O)c1cnc(NC2CCCC2)nc1C1(c2ccccc2)CCCC1 [Example 88, 5-pyrimidinecarboxamide, 2-(cyclopentylamino)-N-ethyl-4-(1-phenylcyclopentyl)-N-(phenylmethyl)-]",926 nM
3,"CN1CCN(c2ncc(C(=O)NCc3ccc(Cl)cc3Cl)c(C3(c4ccc(Cl)cc4)CCCC3)n2)CC1 [Example 179, 5-pyrimidinecarboxamide, 4-[1-(4-chlorophenyl)cyclopentyl]-N-[(2,4-dichlorophenyl)methyl]-2-(4-methyl-1-piperazinyl)-]",535 nM
4,"CCC(C)Nc1ncc(C(=O)NCc2ccc(Cl)cc2Cl)c(C2(c3ccccc3)CCCC2)n1 (stereo not shown) [Example 114, 5-pyrimidinecarboxamide, N-[(2,4-dichlorophenyl)methyl]-2-[(1-methylpropyl)amino]-4-(1-phenylcyclopentyl)-]",102 nM
5,"CC1CCCN(c2ncc(C(=O)NCc3ccc(Cl)c(Cl)c3)c(C3(c4ccc(Cl)cc4)CCCC3)n2)C1 (stereo not shown) [Example 174, 5-pyrimidinecarboxamide, 4-[1-(4-chlorophenyl)cyclopentyl]-N-[(3,4-dichlorophenyl)methyl]-2-(3-methyl-1-piperidinyl)-]",10 nM
6,"CN1CCN(c2ncc(C(=O)NCc3ccc(C(F)(F)F)cc3)c(C3(c4ccc(Cl)cc4)CCCC3)n2)CC1 [Example 202, 5-pyrimidinecarboxamide, 4-[1-(4-chlorophenyl)cyclopentyl]-2-(4-methyl-1-piperazinyl)-N-[[4-(trifluoromethyl)phenyl]methyl]-]",879 nM
7,"CC(NC(=O)c1cnc(N2CCN(C)CC2)nc1C1(c2ccc(Cl)cc2)CCCC1)c1cccc2ccccc12 (stereo not shown) [Example 159, 5-pyrimidinecarboxamide, 4-[1-(4-chlorophenyl)cyclopentyl]-2-(4-methyl-1-piperazinyl)-N-[1-(1-naphthalenyl)ethyl]-]",643 nM
8,"CC1CCC(Nc2ncc(C(=O)NCc3ccc(Cl)cc3Cl)c(C3(c4ccc(Cl)cc4)CCCC3)n2)CC1 (stereo not shown) [Example 177, 5-pyrimidinecarboxamide, 4-[1-(4-chlorophenyl)cyclopentyl]-N-[(2,4-dichlorophenyl)methyl]-2-[(4-methylcyclohexyl)amino]-]",55 nM
9,"CCN(C)C(=O)c1cnc(N2CCCC(C)C2)nc1C1(c2ccc(F)cc2)CCCC1 (stereo not shown) [Example 226, 5-pyrimidinecarboxamide, N-ethyl-4-[1-(4-fluorophenyl)cyclopentyl]-N-methyl-2-(3-methyl-1-piperidinyl)-]",505 nM
10,"CN(C)CCNc1ncc(C(=O)NCc2cc(F)cc(C(F)(F)F)c2)c(C2(c3ccccc3)CCCC2)n1 [Example 129, 5-pyrimidinecarboxamide, 2-[[2-(dimethylamino)ethyl]amino]-N-[[3-fluoro-5-(trifluoromethyl)phenyl]methyl]-4-(1-phenylcyclopentyl)-]",20 nM

# Same assay, conditions: hQ23 cells, thallium flux assay
row,SMILES,EC50
1,"CN(C)CCNc1ncc(C(=O)NCc2ccc(F)cc2F)c(C2(c3ccc(F)cc3)CCCC2)n1 [Example 272, 5-pyrimidinecarboxamide, N-[(2,4-difluorophenyl)methyl]-2-[[2-(dimethylamino)ethyl]amino]-4-[1-(4-fluorophenyl)cyclopentyl]-]",967 nM
2,"CC1CCC(Nc2ncc(C(=O)NC(C)c3cccc4ccccc34)c(C3(c4ccc(F)cc4)CCCC3)n2)CC1 (stereo not shown) [Example 241, 5-pyrimidinecarboxamide, 4-[1-(4-fluorophenyl)cyclopentyl]-2-[(4-methylcyclohexyl)amino]-N-[1-(1-naphthalenyl)ethyl]-]",10 nM
3,"CC(NC(=O)c1cnc(N2CCCC2)nc1C1(c2ccc(F)cc2)CCCC1)c1ccc(F)cc1 (stereo not shown) [Example 282, 5-pyrimidinecarboxamide, 4-[1-(4-fluorophenyl)cyclopentyl]-N-[1-(4-fluorophenyl)ethyl]-2-(1-pyrrolidinyl)-]",594 nM
4,"O=C(NCc1ccc(Cl)cc1Cl)c1cnc(N2CCCC2)nc1C1(c2ccc(F)cc2)CCCC1 [Example 261, 5-pyrimidinecarboxamide, N-[(2,4-dichlorophenyl)methyl]-4-[1-(4-fluorophenyl)cyclopentyl]-2-(1-pyrrolidinyl)-]",28 nM
5,"CCC(C)Nc1ncc(C(=O)NCc2cccc3ccccc23)c(C2(c3ccc(F)cc3)CCCC2)n1 (stereo not shown) [Example 252, 5-pyrimidinecarboxamide, 4-[1-(4-fluorophenyl)cyclopentyl]-2-[(1-methylpropyl)amino]-N-(1-naphthalenylmethyl)-]",350 nM
6,"CC(NC(=O)c1cnc(NC2CCCC2)nc1C1(c2ccc(F)cc2)CCCC1)c1ccc(F)cc1 (stereo not shown) [Example 287, 5-pyrimidinecarboxamide, 2-(cyclopentylamino)-4-[1-(4-fluorophenyl)cyclopentyl]-N-[1-(4-fluorophenyl)ethyl]-]",573 nM
7,"CN(C)CCNc1ncc(C(=O)NCc2ccc(Cl)c(Cl)c2)c(C2(c3ccc(F)cc3)CCCC2)n1 [Example 257, 5-pyrimidinecarboxamide, N-[(3,4-dichlorophenyl)methyl]-2-[[2-(dimethylamino)ethyl]amino]-4-[1-(4-fluorophenyl)cyclopentyl]-]",904 nM
8,"O=C(NCc1ccc(Cl)cc1Cl)c1cnc(NC2CCCC2)nc1C1(c2ccc(F)cc2)CCCC1 [Example 266, 5-pyrimidinecarboxamide, 2-(cyclopentylamino)-N-[(2,4-dichlorophenyl)methyl]-4-[1-(4-fluorophenyl)cyclopentyl]-]",27 nM

# Reference: patent US7091202B2, “4-arylspirocycloalkyl-2-aminopyrimidine carboxamide KCNQ potassium channel modulators” (Bristol-Myers Squibb Company, priority 2004, dated 2006)
